Where two headings read alike, the source gives them in different places. No end group written: not given here.
Experiments:
[1] = test system: MDRAB clinical strain U80; type: cell-based, Acinetobacter baumannii
[2] = test system: MDRAB clinical strain AN10; type: cell-based, Acinetobacter baumannii
Experimental: (§1) MBC were determined by extending the MIC procedure in sterilized 96-well polypropylene microtiter plates according to the broth microdilution guidelines of the Clinical and Laboratory Standards Institute with some modification[47]. […] In addition, 10 µL was drawn from each well with no visible turbidity onto LB agar plates and incubated for 24 h at 37 °C. The lowest concentration showing no visible growth on agar subculture was used as the MBC value. All experiments were performed in triplicate.

[3] = test system: MDRAB clinical strain AE5; type: cell-based, Acinetobacter baumannii
[4] = test system: MDRAB clinical strain AG51; type: cell-based, Acinetobacter baumannii
Experimental: as §1

[5] = test system: MDRAB clinical strain Y92; type: cell-based, Acinetobacter baumannii
Experimental: as §1

[6] = test system: MDRAB clinical strain AK29; type: cell-based, Acinetobacter baumannii
[7] = test system: MDRAB clinical strain AS40; type: cell-based, Acinetobacter baumannii
[8] = test system: MDRAB clinical strain AO80; type: cell-based, Acinetobacter baumannii
Experimental: as §1

[9] = test system: MDRAB clinical strain J49; type: cell-based, Acinetobacter baumannii
Experimental: as §1

[10] = test system: MDRAB clinical strain AL87; type: cell-based, Acinetobacter baumannii
Experimental: as §1

[11] = test system: MDRAB clinical strain U95; type: cell-based, Acinetobacter baumannii
Experimental: as §1

[12] = test system: MDRAB clinical strain AE6; type: cell-based, Acinetobacter baumannii
[13] = test system: MDRAB clinical strain AF12; type: cell-based, Acinetobacter baumannii
[14] = test system: MDRAB clinical strain AF93; type: cell-based, Acinetobacter baumannii
[15] = test system: MDRAB clinical strain O59; type: cell-based, Acinetobacter baumannii
[16] = test system: MDRAB clinical strain AF11; type: cell-based, Acinetobacter baumannii
Experimental: as §1

[17] = test system: MDRAB clinical strain D29; type: cell-based, Acinetobacter baumannii
[18] = test system: MDRAB clinical strain AK61; type: cell-based, Acinetobacter baumannii
[19] = test system: MDRAB clinical strain AZ93; type: cell-based, Acinetobacter baumannii
[20] = test system: MDRAB clinical strains; type: cell-based, Acinetobacter baumannii
[21] = test system: MDRAB clinical strain W11; type: cell-based, Acinetobacter baumannii
Experimental: as §1

[22] = test system: Acinetobacter baumannii 17,978; type: cell-based;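 also: CLSI broth microdilution in 96-well polypropylene plates, MBC taken as lowest concentration giving no growth when clear wells were subcultured on LB agar for 24 h at 37 °C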
[23] = test system: MDRAB clinical strain L87; type: cell-based, Acinetobacter baumannii
[24] = test system: Acinetobacter baumannii 19,606; type: cell-based
Experimental: as §1

[25] = test system: MDRAB clinical strain K2; type: cell-based, Acinetobacter baumannii
Experimental: as §1

[26] = 10 µL from wells without turbidity onto LB agar, 24 h at 37 °C, triplicate

GWKKWFNRAKKVGKTVGGLAVDHYL-NH2 [NRC12]
8 µg/mL: MBC ([2]; 24 h) | MIC ([2]; 24 h) | MBC ([4]; 24 h) | MIC ([4]; 24 h) | MBC ([6]; 24 h) | MIC ([6]; 24 h) | MBC ([10]; 24 h) | MIC ([10]; 24 h) | MIC ([13]; 24 h)
32 µg/mL: MBC ([1]; 24 h) | MIC ([1]; 24 h) | MBC ([7]; 24 h) | MIC ([7]; 24 h) | MBC ([8]; 24 h) | MIC ([8]; 24 h) | MBC ([11]; 24 h) | MIC ([11]; 24 h) | MBC ([15]; 24 h) | MIC ([15]; 24 h) | MBC ([18]; 24 h) | MIC ([18]; 24 h) | MBC ([19]; 24 h) | MIC ([19]; 24 h) | MBC ([23]; 24 h) | MIC ([23]; 24 h) | MBC ([25]; 24 h)
16 µg/mL: MBC ([3]; 24 h) | MIC ([3]; 24 h) | MBC ([5]; 24 h) | MIC ([5]; 24 h) | MBC ([9]; 24 h) | MIC ([9]; 24 h) | MBC ([12]; 24 h) | MIC ([12]; 24 h) | MBC ([13]; 24 h) | MBC ([14]; 24 h) | MIC ([14]; 24 h) | MBC ([16]; 24 h) | MIC ([16]; 24 h) | MBC ([17]; 24 h) | MIC ([17]; 24 h) | MBC ([21]; 24 h) | MIC ([21]; 24 h) | MBC ([22]; 17,978, 24 h) | MIC ([22]; 17,978, 24 h) | MBC ([24]; 19,606, 24 h) | MIC ([24]; 19,606, 24 h) | MIC ([25]; 24 h)
8 to 32 µg/mL: MBC ([20]; 24 h) | MIC ([20]; 24 h)

GRFKRFRKKFKKLFKKLSPVIPLLHLG [BMAP-27]
8 µg/mL: MIC ([1]; 24 h) | MIC ([3]; 24 h) | MBC ([4]; 24 h) | MBC ([5]; 24 h) | MIC ([5]; 24 h) | MBC ([6]; 24 h) | MBC ([7]; 24 h) | MIC ([7]; 24 h) | MBC ([8]; 24 h) | MIC ([8]; 24 h) | MBC ([9]; 24 h) | MIC ([9]; 24 h) | MBC ([10]; 24 h) | MIC ([10]; 24 h) | MBC ([13]; 24 h) | MIC ([13]; 24 h) | MBC ([14]; 24 h) | MIC ([14]; 24 h) | MIC ([16]; 24 h) | MBC ([18]; 24 h) | MIC ([18]; 24 h) | MBC ([19]; 24 h) | MIC ([19]; 24 h) | MBC ([24]; 19,606, 24 h) | MIC ([24]; 19,606, 24 h)
4 to 16 µg/mL: MIC ([20]; 24 h)
32 µg/mL: MBC ([25]; 24 h)
16 µg/mL: MBC ([1]; 24 h) | MBC ([3]; 24 h) | MBC ([11]; 24 h) | MIC ([11]; 24 h) | MBC ([12]; 24 h) | MIC ([12]; 24 h) | MBC ([15]; 24 h) | MIC ([15]; 24 h) | MBC ([16]; 24 h) | MBC ([17]; 24 h) | MIC ([17]; 24 h) | MBC ([21]; 24 h) | MIC ([21]; 24 h) | MBC ([22]; 17,978, 24 h) | MIC ([22]; 17,978, 24 h) | MBC ([23]; 24 h) | MIC ([23]; 24 h) | MIC ([25]; 24 h)
4 µg/mL: MBC ([2]; 24 h) | MIC ([2]; 24 h) | MIC ([4]; 24 h) | MIC ([6]; 24 h)

CC[C@H](C)[C@H](NC(=O)CNC(=O)[C@@H](NC(=O)[C@H](CCCCN)NC(=O)[C@H](CCCCN)NC(=O)[C@H](Cc1ccccc1)NC(=O)[C@H](CC(C)C)NC(=O)[C@H](CCCCN)NC(=O)[C@H](Cc1c[nH]c2ccccc12)NC(=O)[C@@H](N)CCCCN)[C@@H](C)CC)C(=O)NCC(=O)N[C@@H](C)C(=O)N[C@H](C(=O)N[C@@H](CC(C)C)C(=O)N[C@@H](CCCCN)C(=O)N[C@H](C(=O)N[C@@H](CC(C)C)C(=O)N[C@H](C(=O)N[C@H](C(=O)NCC(N)=O)[C@@H](C)O)[C@@H](C)O)C(C)C)C(C)C [CAME]
32 µg/mL: MBC ([1]; strain U80, subculture on LB agar, 24 h 37 °C) | MBC ([2]; strain AN10, subculture on LB agar, 24 h 37 °C) | MIC ([3]; strain AE5, broth microdilution, LB, 24 h 37 °C) | MBC ([3]; strain AE5, subculture on LB agar, 24 h 37 °C) | MBC ([4]; strain AG51, subculture on LB agar, 24 h 37 °C) | MIC ([5]; strain Y92, broth microdilution, LB, 24 h 37 °C) | MBC ([5]; strain Y92, subculture on LB agar, 24 h 37 °C) | MBC ([9]; strain J49, subculture on LB agar, 24 h 37 °C) | MIC ([10]; strain AL87, broth microdilution, LB, 24 h 37 °C) | MBC ([10]; strain AL87, subculture on LB agar, 24 h 37 °C) | MIC ([11]; strain U95, broth microdilution, LB, 24 h 37 °C) | MIC ([12]; strain AE6, broth microdilution, LB, 24 h 37 °C) | MBC ([12]; strain AE6, subculture on LB agar, 24 h 37 °C) | MIC ([14]; strain AF93, broth microdilution, LB, 24 h 37 °C) | MBC ([14]; strain AF93, subculture on LB agar, 24 h 37 °C) | MIC ([15]; strain O59, broth microdilution, LB, 24 h 37 °C) | MBC ([16]; strain AF11, subculture on LB agar, 24 h 37 °C) | MIC ([17]; strain D29, broth microdilution, LB, 24 h 37 °C) | MBC ([17]; strain D29, subculture on LB agar, 24 h 37 °C) | MBC ([21]; strain W11, subculture on LB agar, 24 h 37 °C) | MBC [22, 26] | MIC ([22]; broth microdilution (CLSI, modified), LB medium, 5 × 10^5 CFU/mL, 24 h at 37 °C, lowest concentration with no visible growth, triplicate) | MIC ([23]; strain L87, broth microdilution, LB, 24 h 37 °C) | MBC [24, 26] | MIC ([24]; broth microdilution (CLSI, modified), LB medium, 5 × 10^5 CFU/mL, 24 h at 37 °C, triplicate)
8 µg/mL: MIC ([6]; strain AK29, broth microdilution, LB, 24 h 37 °C) | MIC ([7]; strain AS40, broth microdilution, LB, 24 h 37 °C) | MBC ([7]; strain AS40, subculture on LB agar, 24 h 37 °C) | MIC ([8]; strain AO80, broth microdilution, LB, 24 h 37 °C) | MIC ([18]; strain AK61, broth microdilution, LB, 24 h 37 °C) | MIC ([19]; strain AZ93, broth microdilution, LB, 24 h 37 °C) | MBC ([19]; strain AZ93, subculture on LB agar, 24 h 37 °C) | MIC ([25]; strain K2, broth microdilution, LB, 24 h 37 °C)
8 to 32 µg/mL: MIC ([20]; range over MDRAB clinical strains (details in Supplementary Table 2), broth microdilution, LB, 24 h 37 °C)
64 µg/mL: MBC ([11]; strain U95, subculture on LB agar, 24 h 37 °C) | MBC ([15]; strain O59, subculture on LB agar, 24 h 37 °C) | MBC ([23]; strain L87, subculture on LB agar, 24 h 37 °C)
8 to 64 µg/mL: MBC ([20]; range over MDRAB clinical strains (details in Supplementary Table 2), subculture on LB agar, 24 h 37 °C)
16 µg/mL: MIC ([1]; strain U80, broth microdilution, LB, 24 h 37 °C) | MIC ([2]; strain AN10, broth microdilution, LB, 24 h 37 °C) | MIC ([4]; strain AG51, broth microdilution, LB, 24 h 37 °C) | MBC ([6]; strain AK29, subculture on LB agar, 24 h 37 °C) | MBC ([8]; strain AO80, subculture on LB agar, 24 h 37 °C) | MIC ([9]; strain J49, broth microdilution, LB, 24 h 37 °C) | MIC ([13]; strain AF12, broth microdilution, LB, 24 h 37 °C) | MBC ([13]; strain AF12, subculture on LB agar, 24 h 37 °C) | MIC ([16]; strain AF11, broth microdilution, LB, 24 h 37 °C) | MBC ([18]; strain AK61, subculture on LB agar, 24 h 37 °C) | MIC ([21]; strain W11, broth microdilution, LB, 24 h 37 °C) | MBC ([25]; strain K2, subculture on LB agar, 24 h 37 °C)

— paper PMC8016998, “Identification of potential therapeutic antimicrobial peptides against Acinetobacter baumannii in a mouse model of pneumonia” (Scientific Reports, 2021)
